According to patent US20260191853A1, “METHOD OF TREATING DRUG-INDUCED BRADYARRHYTHMIA” (OSAKA UNIVERSITY, priority 2022, published 2026):
Entries after “also recorded” stand apart in the source; their conditions may differ.

Tested on: Hartley guinea pigs
Test: Preventive effect on siponimod-induced bradyarrhythmia in isoflurane-anesthetized guinea pig model
Format: in vivo
Experimental: A solvent or compound (I) (free form) was administered by oral gavage at a dose of 0.3. 1, or 3 mg/kg (volume: 5 mL/kg) to Hartley guinea pigs (7 to 10 weeks old, male, available from Japan SLC, Inc.). After completion of the administration, each animal was subjected to anesthetic induction by inhalation of isoflurane (available from Pfizer Japan Inc.), and the animal was held on an operating table having a heater function. The trachea was incised, and a tracheal cannula (KN-375, available from Natsume Seisakusho Co., Ltd.) was inserted. The tracheal cannula was connected to a ventilator (SN-480-7, available from Shinano Seisakusho Co., Ltd.), and artificial respiration was controlled by supplying 100% oxygen at a volume of 10 mL and a ventilation rate of 60 times/minute. The solvent used was 0.5 w/v % methyl cellulose 400 solution (available from FUJIFILM Wako Pure Chemical Corporation). Isoflurane (available from Pfizer Japan Inc.) anesthesia (about 1 to 4%, carrier gas: 100% oxygen) was used for maintenance of anesthesia. A catheter (BD intramedic polyethylene tubing PE50, available from Becton, Dickinson and Company) charged with 50 units/mL heparin (available from AY PHARMACEUTICALS CO., LTD.) was inserted into each of the carotid artery and the jugular vein and placed in the blood vessel. Systemic blood pressure was measured with a high-sensitivity DC amplifier (AD-611J, available from NIHON KOHDEN CORPORATION) via the catheter placed in the carotid artery. Electrodes were attached to the body surface, and a body surface electrocardiogram was measured with a high-sensitivity amplifier (AB-611J, available from NIHON KOHDEN CORPORATION). Blood pressure and electrocardiogram data were acquired and analyzed with PowerLab/Labchart system (available from ADInstruments). Analysis items are systolic blood pressure, diastolic blood pressure, average blood pressure, heart rate, P-wave width, PR interval, QRS width, QT interval, and corrected QT interval. Corrected QT interval was calculated using the Fridericia formula (QTc=QT interval/RR interval^1/3). After stabilization of each parameter, siponimod (synthesized according to WO 2017/120124) was continuously administered intravenously at 0.01 mg/kg for 10 minutes via the catheter placed in the jugular vein, followed by observation of the presence or absence of the onset of bradyarrhythmia for 60 minutes. The solvent used was a solution prepared by mixing of Polyethylene Glycol 400 (available from KANTO CHEMICAL CO., INC.) and dimethyl sulfoxide (available from FUJIFILM Wako Pure Chemical Corporation) at 9: 1 (volume ratio). Data were recorded and blood was collected 5, 10, 15, 20, 30, and 60 minutes after initiation of administration of siponimod. The observation was terminated 60 minutes after initiation of the administration, and the animal was euthanized by exsanguination or intravenous administration of a large amount of saturated potassium chloride solution under isoflurane anesthesia. Data were analyzed for atrial beating rate over time, ventricular beating rate over time, electrocardiographic parameters, the presence or absence of the onset of atrioventricular block, and plasma concentrations of compound (I) and siponimod. The plasma was collected by centrifuging the blood and cryopreserved at about −20° C. After thawing of the plasma, plasma drug concentrations were measured using LC/MS/MS after deproteinization with acetonitrile.
In FIG. 3, the measurements are shown as mean±standard error. Abbreviations, etc. are as follows. • (I): compound (I) • Atrioventricular block: the presence or absence of atrioventricular block • (x denotes second- or third-degree atrioventricular block) • PR & QRS: atrioventricular conduction time and ventricular activation time • QT & QTcF: ventricular repolarization time and heart rate-corrected ventricular repolarization time • Plasma concentration: the plasma concentration of siponimod or compound (I)

## Cc1cc(CO)nc2cc3c(cc12)OC(C)(C)[C@H](O)[C@H]3NCCc1ccccc1 [Compound (I), (3R,4S)-7-Hydroxymethyl-2,2,9-trimethyl-4-(phenethylamino)-3,4-dihydro-2H-pyrano[2,3-g]quinoline-3-ol]
0.3 mg/kg oral gavage, four cases per group
  cases in which siponimod-induced atrioventricular block was not observed: 50%
1 mg/kg oral gavage, four cases per group
  cases in which siponimod-induced atrioventricular block was not observed: 75%
3 mg/kg oral gavage, four cases per group
  cases in which siponimod-induced atrioventricular block was suppressed: 100%
3 mg/kg oral gavage, siponimod 0.01 mg/kg i.v.
  siponimod-induced bradycardia (ventricular beating rate / heart rate): completely restored; also recorded: completely prevented
0.3, 1, 3 mg/kg oral gavage, FIG. 3 and FIG. 4
  onset of siponimod-induced bradyarrhythmia (atrioventricular block): prevented the onset of siponimod-induced bradyarrhythmia (atrioventricular block) in a dose-dependent manner
Compound (I) 0.3, 1, 3 mg/kg oral gavage before siponimod 0.01 mg/kg i.v. over 10 min, FIG. 3
  siponimod-induced bradycardia (ventricular beating rate / heart rate): improved in a dose-dependent manner; also recorded: prevented a reduction in heart rate
Compound (I) oral gavage 0.3-3 mg/kg
  siponimod-induced prolongation of QT time: almost completely suppressed
